Data as given in patent US20100063047A1 (KALYPSYS, INC., priority 2008, published 2010).

Biological target: T1, human H1 (Homo sapiens, UniProt P35367)
T1 construct: host or cells: CHO-K1, also expressing mitochondrion-targeted aequorin
Test: In vitro histamine H1 receptor cell-based aequorin bioluminescence antagonist assay
Conditions: CHO-K1 cells expressing human H1 and aequorin; histamine at EC80; read-out: H1 Antagonist EC50
Procedure: In vitro Histamine Receptor Cell-Based Assays
The cell-based assays utilize an aequorin dependent bioluminescence signal. Doubly-transfected, stable CHO—K1 cell lines expressing human H1 or H4, mitochondrion-targeted aequorin, and (H4 only) human G protein Gα16 are obtained from Perkin-Elmer. Cells are maintained in F12 (Ham's) growth medium, containing 10% (vol./vol.) fetal bovine serum, penicillin (100 IU/mL), streptomycin (0.1 mg/mL), zeocin (0.25 mg/mL) and geneticin (0.40 mg/mL). Cell media components are from Invitrogen, Inc. One day prior to assay, the growth medium is replaced with the same, excluding zeocin and geneticin.
For assay preparation, growth medium is aspirated, and cells are rinsed with calcium-free, magnesium-free phosphate-buffered saline, followed by two to three minute incubation in Versene (Invitrogen, Inc.) at 37° C. Assay medium (DMEM:F12 [50:50], phenol-red free, containing 1 mg/mL protease-free bovine serum albumin) is added to collect the released cells, which are then centrifuged. The cell pellet is re-suspended in assay medium, centrifuged once more, and re-suspended in assay medium to a final density of 5×10^6 cells/mL. Coelenterazine-h dye (500 μM in ethanol) is added to a final concentration of 5 μM, and mixed immediately. The conical tube containing the cells is then wrapped with foil to protect the light-sensitive dye. The cells are incubated for four hours further at room temperature (approximately 21° C.) with end-over-end rotation to keep them in suspension.
Just before assay, the dye-loaded cells are diluted to 0.75×10^6 cells/mL (H1 receptor) or 1.5×10^6 cells/mL (H4 receptor) with additional assay medium. Cells are dispensed to 1536 well micro-titer plates at 3 μL/well. To assay receptor antagonism, 60 nl of 100× concentration test compounds in 100% dimethyl sulfoxide (DMSO) are dispensed to the wells, one compound per well, by passive pin transfer, and the plates are incubated for 15 minutes at room temperature. […] The pipette dispenses 3 μL/well of agonist (histamine, at twice the final concentration, where final concentration is a previously determined EC80) in assay medium, with concurrent bioluminescence detection. Agonist activity of test compounds is excluded by separate assays that measure response to test compounds immediately, without added histamine agonist.
CCD image capture on the Lumilux includes a 5 second baseline read prior to agonist addition, and generally a 40 second read per plate after agonist addition. A decrease in bioluminescence signal (measured either as area-under-the-curve, or maximum signal amplitude minus minimum signal amplitude) correlates with receptor antagonism in a dose dependent manner. The negative control is DMSO lacking any test compound. For antagonist assays, the positive controls are diphenhydramine (2-Diphenylmethoxy-N,N-dimethylethylamine, 10 μM final concentration, H1 receptor) or JNJ7777120 (1-[(5-Chloro-1H-indol-2-yl)carbonyl]-4-methyl-piperazine, 10 μM final concentration, H4 receptor). Efficacy is measured as a percentage of positive control activity.

T1 sequence (P35367 whole entry): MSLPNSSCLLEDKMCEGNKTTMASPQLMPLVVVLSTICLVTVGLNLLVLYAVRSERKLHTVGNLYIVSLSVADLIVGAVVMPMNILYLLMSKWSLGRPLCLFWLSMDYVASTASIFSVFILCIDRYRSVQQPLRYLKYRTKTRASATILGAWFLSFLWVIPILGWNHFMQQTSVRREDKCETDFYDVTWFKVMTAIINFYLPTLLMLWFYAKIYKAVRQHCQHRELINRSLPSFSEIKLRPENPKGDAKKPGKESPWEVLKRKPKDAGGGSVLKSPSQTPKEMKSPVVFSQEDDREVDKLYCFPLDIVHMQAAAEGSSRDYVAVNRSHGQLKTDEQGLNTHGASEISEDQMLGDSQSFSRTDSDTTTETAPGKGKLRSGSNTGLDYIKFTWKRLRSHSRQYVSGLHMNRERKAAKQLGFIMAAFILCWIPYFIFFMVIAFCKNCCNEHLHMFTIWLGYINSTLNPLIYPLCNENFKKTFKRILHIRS

EC50, > 10 µM:
CCOC(=O)CC(C)Nc1ncnc2scc(C)c12 (centres unmarked) [Example 110, ethyl 3-({5-methylthieno[2,3-d]pyrimidin-4-yl}amino)butanoate]
Cc1csc2ncnc(NCc3ccc(Cl)cc3)c12 [Example 131, N-[(4-chlorophenyl)methyl]-5-methylthieno[2,3-d]pyrimidin-4-amine]
CCC(CO)Nc1ncnc2scc(C)c12 (centres unmarked) [Example 73, 2-({5-methylthieno[2,3-d]pyrimidin-4-yl}amino)butan-1-ol]
COCC(C)Nc1ncnc2scc(C)c12 (centres unmarked) [Example 71, N-(1-methoxypropan-2-yl)-5-methylthieno[2,3-d]pyrimidin-4-amine]
Cc1csc2ncnc(NC(CO)C(C)C)c12 (centres unmarked) [Example 82, 3-methyl-2-({5-methylthieno[2,3-d]pyrimidin-4-yl}amino)butan-1-ol]
OCCCCNc1ncnc2scc(-c3ccccc3)c12 [Example 312, 4-(5-phenylthieno[2,3-d]pyrimidin-4-ylamino)butan-1-ol]
CCOC(=O)C1CCN(c2ncnc3scc(C)c23)CC1 [Example 44, ethyl 1-{5-methylthieno[2,3-d]pyrimidin-4-yl}piperidine-4-carboxylate]
COc1cccc(CCNc2ncnc3scc(C)c23)c1 [Example 16, [2-(3-Methoxyphenyl)ethyl](5-methylthiopheno[3,2-e]pyrimidin-4-yl)amine]
Cc1csc2ncnc(N3CCCCC3C)c12 (centres unmarked) [Example 190, 2-methyl-1-{5-methylthieno[2,3-d]pyrimidin-4-yl}piperidine]
Cc1csc2ncnc(NCc3ccc(Cl)c(Cl)c3)c12 [Example 166, N-[(3,4-dichlorophenyl)methyl]-5-methylthieno[2,3-d]pyrimidin-4-amine]
Cc1sc2ncnc(NCCc3ccc(S(N)(=O)=O)cc3)c2c1C [Example 301, 4-(2-(5,6-dimethylthieno[2,3-d]pyrimidin-4-ylamino)ethyl)benzenesulfonamide]
Cc1csc2ncnc(N3CCC(N(C)C(=O)OC(C)(C)C)C3)c12 (centres unmarked) [Example 270, tert-butyl N-methyl-N-(1-{5-methylthieno[2,3-d]pyrimidin-4-yl}pyrrolidin-3-yl)carbamate]
COCC(C)n1c(C)cc(C(=O)CSc2ncnc3sc(C)c(C)c23)c1C (centres unmarked) [Example 303, 2-(5,6-dimethylthieno[2,3-d]pyrimidin-4-ylthio)-1-(1-(1-methoxypropan-2-yl)-2,5-dimethyl-1H-pyrrol-3-yl)ethanone]
Cc1csc2ncnc(NCCCN(C)c3ccccc3)c12 [Example 157, N-methyl-N-[3-({5-methylthieno[2,3-d]pyrimidin-4-yl}amino)propyl]aniline]
c1ccc(CC2CCN(c3ncnc4sccc34)CC2)cc1 [Example 302, 4-(4-benzylpiperidin-1-yl)thieno[2,3-d]pyrimidine]
CCC1CCC(Nc2ncnc3scc(C)c23)CC1 (centres unmarked) [Example 22, (4-Ethylcyclohexyl)(5-methylthiopheno[3,2-e]pyrimidin-4-yl)amine]
Cc1csc2ncnc(NCc3ccc(C(F)(F)F)cc3)c12 [Example 164, 5-methyl-N-{[4-(trifluoromethyl)phenyl]methyl}thieno[2,3-d]pyrimidin-4-amine]
Cc1cccc(N2CCN(c3ncnc4scc(C)c34)CC2C)c1 (centres unmarked) [Example 255, 2-methyl-1-(3-methylphenyl)-4-{5-methylthieno[2,3-d]pyrimidin-4-yl}piperazine]
CCCC(Nc1ncnc2sccc12)c1ccccc1 (centres unmarked) [Example 307, N-(1-phenylbutyl)thieno[2,3-d]pyrimidin-4-amine]
Clc1ccc(CCNc2ccnc3sccc23)cc1 [Example 38, N-(4-chlorophenethyl)thieno[2,3-b]pyridin-4-amine]
Cc1csc2ncnc(NCCCN3CCOCC3)c12 [Example 136, 5-methyl-N-[3-(morpholin-4-yl)propyl]thieno[2,3-d]pyrimidin-4-amine]
Cc1csc2ncnc(NCc3cccc(Cl)c3)c12 [Example 129, N-[(3-chlorophenyl)methyl]-5-methylthieno[2,3-d]pyrimidin-4-amine]
COc1ccc(CCNc2ncnc3sccc23)cc1 [Example 48, N-[2-(4-methoxyphenyl)ethyl]thieno[2,3-d]pyrimidin-4-amine]
COc1ccc(CCNc2ccnc3scc(C)c23)cc1 [Example 37, N-(4-methoxyphenethyl)-3-methylthieno[2,3-b]pyridin-4-amine]
Cc1csc2ncnc(NCc3cccc(C(F)(F)F)c3)c12 [Example 165, 5-methyl-N-{[3-(trifluoromethyl)phenyl]methyl}thieno[2,3-d]pyrimidin-4-amine]
Cc1csc2ncnc(NCC3CCc4cc(Cl)ccc43)c12 (centres unmarked) [Example 30, N-((5-chloro-2,3-dihydro-1H-inden-1-yl)methyl)-5-methylthieno[2,3-d]pyrimidin-4-amine]
CCc1cc2c(N3CCN(Cc4ccccc4)CC3)ncnc2s1 [Example 14, 4-(4-benzylpiperazin-1-yl)-6-ethylthieno[2,3-d]pyrimidine]
Cc1csc2ncnc(NCC3CC3)c12 [Example 59, N-(cyclopropylmethyl)-5-methylthieno[2,3-d]pyrimidin-4-amine]
CCCC(C)Nc1ncnc2scc(C)c12 (centres unmarked) [Example 66, 5-methyl-N-(pentan-2-yl)thieno[2,3-d]pyrimidin-4-amine]
Cc1csc2ncnc(NC3CCC(C)CC3)c12 (centres unmarked) [Example 21, (4-Methylcyclohexyl)(5-methylthiopheno[3,2-e]pyrimidin-4-yl)amine]
COc1ccc(CCNc2nc(C)nc3sc(C)c(C)c23)cc1OC [Example 296, N-(3,4-dimethoxyphenethyl)-2,5,6-trimethylthieno[2,3-d]pyrimidin-4-amine]
Cc1csc2ncnc(NCc3cc(F)cc(F)c3)c12 [Example 135, N-[(3,5-difluorophenyl)methyl]-5-methylthieno[2,3-d]pyrimidin-4-amine]
Cc1csc2ncnc(N3CCN(CCN4CCOCC4)CC3)c12 [Example 269, 4-[2-(4-{5-methylthieno[2,3-d]pyrimidin-4-yl}piperazin-1-yl)ethyl]morpholine]
Cc1csc2ncnc(NC3CCN(Cc4ccccc4)C3)c12 (centres unmarked) [Example 168, 1-benzyl-N-{5-methylthieno[2,3-d]pyrimidin-4-yl}pyrrolidin-3-amine]
CC(=O)c1ccc(N2CCN(c3ncnc4scc(C)c34)CC2)cc1 [Example 271, 1-[4-(4-{5-methylthieno[2,3-d]pyrimidin-4-yl}piperazin-1-yl)phenyl]ethan-1-one]
